Experiments:
[1] = biological target: T1, MAO-B (Homo sapiens, UniProt P27338); experiment: In vitro MAO-B inhibition assay (fluorometric); assay type: biochemical; settings: for inhibition at 1000 µM: 10^–3 M; for inhibition at 100 µM: 10^–4 M; for inhibition at 10 µM: 10^–5 M; for inhibition at 1 µM: 10^–6 M; for inhibition at 0.1 µM: 10^–7 M; for inhibition at 0.01 µM: 10^–8 M; for inhibition at 0.001 µM: 10^–9 M
T1 sequence (P27338 1-520): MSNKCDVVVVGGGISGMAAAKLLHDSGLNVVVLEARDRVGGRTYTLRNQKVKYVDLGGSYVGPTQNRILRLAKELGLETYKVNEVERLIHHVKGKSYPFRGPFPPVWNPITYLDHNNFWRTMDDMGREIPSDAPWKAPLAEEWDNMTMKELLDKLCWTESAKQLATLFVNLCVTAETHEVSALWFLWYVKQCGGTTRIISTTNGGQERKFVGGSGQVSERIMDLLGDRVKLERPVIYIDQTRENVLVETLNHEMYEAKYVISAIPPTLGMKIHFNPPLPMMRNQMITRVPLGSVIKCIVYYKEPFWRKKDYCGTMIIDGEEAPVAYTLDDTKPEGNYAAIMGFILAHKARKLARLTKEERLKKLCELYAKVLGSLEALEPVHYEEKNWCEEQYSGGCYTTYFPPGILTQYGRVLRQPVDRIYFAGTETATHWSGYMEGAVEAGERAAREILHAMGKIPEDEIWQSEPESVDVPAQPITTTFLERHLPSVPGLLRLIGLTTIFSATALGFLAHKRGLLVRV

[2] = biological target: T2, MAO-A (Homo sapiens, UniProt P21397); experiment: In vitro MAO-A inhibition assay (fluorometric); assay type: biochemical; settings: for inhibition at 1000 µM: 10^–3 M; for inhibition at 100 µM: 10^–4 M
T2 sequence (P21397 1-527): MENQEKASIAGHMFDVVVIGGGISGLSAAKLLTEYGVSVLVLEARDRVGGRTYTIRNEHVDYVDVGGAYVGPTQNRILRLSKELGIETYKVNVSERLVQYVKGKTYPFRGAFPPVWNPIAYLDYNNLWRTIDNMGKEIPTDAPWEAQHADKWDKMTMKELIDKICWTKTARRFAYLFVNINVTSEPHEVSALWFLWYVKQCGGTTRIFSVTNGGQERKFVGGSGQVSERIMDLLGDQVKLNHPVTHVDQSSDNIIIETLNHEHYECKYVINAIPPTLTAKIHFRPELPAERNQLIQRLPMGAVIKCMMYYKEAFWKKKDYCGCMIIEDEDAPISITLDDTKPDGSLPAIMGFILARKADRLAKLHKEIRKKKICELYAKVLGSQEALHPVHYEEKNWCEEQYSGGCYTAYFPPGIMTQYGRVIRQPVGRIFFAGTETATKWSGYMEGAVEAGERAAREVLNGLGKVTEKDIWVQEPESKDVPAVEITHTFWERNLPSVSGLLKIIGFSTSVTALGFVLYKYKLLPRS

[3] = biological target: BChE (Homo sapiens, UniProt P06276); experiment: biochemical; settings: for inhibition at 1000 µM: 10^–3 M; for inhibition at 100 µM: 10^–4 M
Method: (§1) According to the modified Ellman approach outlined in our team’s earlier work, the AChE and BChE inhibitory activities of the obtained compounds were evaluated.[18]−[21]

[4] = biological target: T3, AChE (Homo sapiens, UniProt P22303); experiment: biochemical; settings: for inhibition at 1000 µM: 10^–3 M; for inhibition at 100 µM: 10^–4 M; for inhibition at 10 µM: 10^–5 M; for inhibition at 1 µM: 10^–6 M; for inhibition at 0.1 µM: 10^–7 M; for inhibition at 0.01 µM: 10^–8 M; for inhibition at 0.001 µM: 10^–9 M
Method: as §1

[5] = biological target: T3, AChE; experiment: Enzyme kinetics on AChE (Lineweaver–Burk); assay type: biochemical
Method: The experimental procedures used in the kinetic investigations were identical to those used in the inhibition experiments. […]. Acetylthiocholine iodide (ATC) and butyrylthiocholine iodide (BTC) solutions were utilized as the substrates for the ChE enzymes, with serial dilutions at six different concentrations (600, 300, 150, 75, 37.5, and 18.75 μM). The tyramine substrate solution (concentrations ranging from 20 to 0.625 μM) was produced for the MAO enzymes at six different concentrations. Separate measurements were conducted both with and without an inhibitor. Using the Microsoft Office Excel 2013 program, the resulting absorbance values were compared to various substrate concentrations, and Lineweaver–Burk plots were created.[19]−[22]
The absorbance data from the experiments and the substrate concentrations were used to generate Lineweaver–Burk plots. The graphic’s x-axis stands for 1/[S] […] […]. The intersection of these four lines on the diagram was used to define the type of substrate and inhibitor reaction against the enzyme.
Reversible and irreversible inhibition of enzymes are the two categories that inhibition is commonly subdivided into. In irreversible inhibition, the inhibitor either creates a recalcitrant complex structure or establishes a covalent bond with the enzyme. […]

[6] = Cytotoxicity test (MTT); assay type: cell-based; settings: NIH/3T3 mouse embryonic fibroblast cells (ATCC CRL-1658), NIH/3T3 mouse fibroblast healthy cell line
Method: The NIH/3T3 cells were incubated according to the manufacturer’s recommendations. In 96-well plates, NIH/3T3 cells were seeded at a density of 1 × 10^4 cells per well. The MTT test was conducted in line with the previously mentioned standards.[19],[22],[23],[28],[30]

[7] = biological target: T4, Beta Amyloid 1–42 (Aβ42) (Homo sapiens, UniProt P05067); experiment: Beta Amyloid 1–42 (Aβ42) inhibitor screening assay; assay type: biochemical; settings: for inhibition at 1000 µM: 10^–3 M; for inhibition at 1000 µM / inhibition at 100 µM: read-out: % β-amyloid plaque inhibition; for inhibition at 100 µM: 10^–4 M; for IC50: read-out: IC50 on β-amyloid plaque aggregation
T4 construct: The Beta Amyloid 1–42 (Aβ42) Ligand Screening Assay kit; purchased BioVision, Milpitas, CA
Source text: The Beta Amyloid 1–42 (Aβ42) Ligand Screening Assay kit (BioVision, Milpitas, CA) technique based on the fluorometric approach served as the basis for the experimental process.[21],[28],[29]

[8] = DPPH free-radical scavenging activity assay; settings: serial dilution 10^–3–10^–9 M; read-out: IC50 on DPPH antioxidant activity
Method: This approach is based on evaluating the free-radical scavenging abilities of the stable 1,1-diphenyl-2-picrylhydrazyl (DPPH) radical. To create the DPHH solution, 9.86 mg of DPPH was weighed and diluted to 25 mL with methanol. The test wells were then filled with 100 μL of the DPPH solution and 100 μL of the test solutions. Only 200 μL of methanol was used for the blank reading, while the control reading required the usage of 100 μL each of methanol and the DPPH solution. Following incubation, a spectrophotometric measurement at 517 nm was carried out.[26],[27]

T4 sequence (P05067 672-713 limits assumed): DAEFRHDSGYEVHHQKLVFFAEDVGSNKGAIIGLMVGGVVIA
T3 sequence (P22303 32-614): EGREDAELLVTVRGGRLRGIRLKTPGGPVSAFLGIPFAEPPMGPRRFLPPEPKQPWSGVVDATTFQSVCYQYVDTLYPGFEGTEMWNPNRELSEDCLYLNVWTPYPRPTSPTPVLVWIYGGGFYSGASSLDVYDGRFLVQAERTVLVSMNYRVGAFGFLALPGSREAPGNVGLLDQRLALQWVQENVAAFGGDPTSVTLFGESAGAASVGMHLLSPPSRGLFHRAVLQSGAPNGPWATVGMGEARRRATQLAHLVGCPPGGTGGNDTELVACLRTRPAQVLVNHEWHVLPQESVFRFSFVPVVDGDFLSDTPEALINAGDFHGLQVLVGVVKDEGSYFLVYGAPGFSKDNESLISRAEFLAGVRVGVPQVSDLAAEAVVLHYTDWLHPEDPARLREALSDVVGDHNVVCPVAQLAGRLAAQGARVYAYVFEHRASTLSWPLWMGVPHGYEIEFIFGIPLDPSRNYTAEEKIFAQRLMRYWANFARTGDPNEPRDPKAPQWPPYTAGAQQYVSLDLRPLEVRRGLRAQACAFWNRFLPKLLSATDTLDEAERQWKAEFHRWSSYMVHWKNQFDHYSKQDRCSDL
BChE, sequence (P06276 29-602): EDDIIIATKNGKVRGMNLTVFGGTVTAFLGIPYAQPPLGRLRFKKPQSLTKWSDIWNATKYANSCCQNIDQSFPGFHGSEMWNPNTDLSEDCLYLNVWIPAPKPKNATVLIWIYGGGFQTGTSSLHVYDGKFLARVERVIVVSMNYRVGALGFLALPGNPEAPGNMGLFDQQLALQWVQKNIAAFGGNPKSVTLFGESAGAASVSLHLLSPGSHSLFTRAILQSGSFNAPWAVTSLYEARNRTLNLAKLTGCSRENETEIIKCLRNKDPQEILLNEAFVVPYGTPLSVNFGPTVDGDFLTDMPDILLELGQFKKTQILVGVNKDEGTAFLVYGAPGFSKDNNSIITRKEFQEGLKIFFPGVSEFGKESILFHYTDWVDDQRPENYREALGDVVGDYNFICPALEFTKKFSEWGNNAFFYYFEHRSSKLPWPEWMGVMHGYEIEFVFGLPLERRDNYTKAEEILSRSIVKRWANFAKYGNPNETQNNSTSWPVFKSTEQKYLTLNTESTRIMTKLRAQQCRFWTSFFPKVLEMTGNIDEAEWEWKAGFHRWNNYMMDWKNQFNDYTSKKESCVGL

Compound | IC50 [1] | inhibition at 1000 µM [1] | inhibition at 100 µM [1] | inhibition at 10 µM [1] | inhibition at 1 µM [1] | inhibition at 0.1 µM [1] | inhibition at 0.01 µM [1] | inhibition at 0.001 µM [1] | inhibition at 1000 µM [2] | inhibition at 1000 µM [3] | IC50 [4] | inhibition at 1000 µM [4] | inhibition at 100 µM [4] | inhibition at 10 µM [4] | inhibition at 1 µM [4] | inhibition at 0.1 µM [4] | inhibition at 0.01 µM [4] | inhibition at 0.001 µM [4] | IC50 [6] | IC50 [8] | other results
CCCN(C)CC(=O)Nc1ccc(/C=C2\Cc3ccc(OC)cc3C2=O)cc1 [D29] | 0.0412 ± 0.0018 µM | 91.8 ± 1.37% | 87.6 ± 1.25% | 82.2 ± 1.21% | 74.2 ± 1.3% | 66 ± 1.84% | 40.3 ± 0.745% | 20.4 ± 0.628% | ≥ 90% | 61.1 ± 0.99% | 0.0224 ± 0.0008 µM | 97.2 ± 1.32% | 94.3 ± 1.46% | 91.8 ± 1.21% | 88.3 ± 1.02% | 75.6 ± 0.974% | 34.3 ± 0.857% | 20.1 ± 0.357% | 73.6 ± 1.76 µM | 0.188 ± 0.008 µM | IC50 [2]: 0.112 ± 0.0042 µM; inhibition at 10 µM ([2]; 10^–5 M): 77.4 ± 1.13%; inhibition at 1 µM ([2]; 10^–6 M): 67.3 ± 1.08%; inhibition at 0.1 µM ([2]; 10^–7 M): 49.4 ± 0.567%; inhibition at 0.01 µM ([2]; 10^–8 M): 34 ± 0.422%; inhibition at 0.001 µM ([2]; 10^–9 M): 24.6 ± 0.328%; fold stronger MAO-A inhibition compared to moclobemide ([2]; ratio of IC50 values): 50 ×; inhibition at 100 µM [3]: 26.914 ± 0.019%; type of inhibition of AChE ([5]; Lineweaver–Burk plots): mixed inhibition; Ki ([5]; secondary plot of Lineweaver–Burk data, read-out: steady-state inhibition constant (Ki), AChE): 0.0185 µM; inhibition at 1000 µM [7]: 80.3 ± 2.05%; inhibition at 100 µM [7]: 71.9 ± 1.88%; IC50 [7]: 0.123 ± 0.0049 µM
CCCN(C)CC(=O)Nc1ccc(/C=C2\Cc3cc(OC)c(OC)cc3C2=O)cc1 [D30] | 0.0456 ± 0.0017 µM | 97.5 ± 1.39% | 90.2 ± 1.47% | 82.5 ± 1.38% | 74.6 ± 1.29% | 66 ± 0.966% | 38.1 ± 0.458% | 19.8 ± 0.632% | 74.1 ± 2.09% | 99.6 ± 2.02% | 0.0257 ± 0.0009 µM | 98.2 ± 1.37% | 96.6 ± 1.28% | 91.8 ± 1.21% | 88.3 ± 1.1% | 74.3 ± 1.05% | 36.6 ± 0.627% | 16.4 ± 0.421% | 0.601 ± 0.0145 µM | 0.246 ± 0.011 µM | inhibition at 100 µM [2]: 28.3 ± 1.08%; inhibition at 100 µM [3]: 46.43 ± 0.408%; inhibition at 1000 µM [7]: 89.6 ± 1.86%; inhibition at 100 µM [7]: 81.5 ± 1.96%; IC50 [7]: 0.178 ± 0.0074 µM
COc1ccc2c(c1)C(=O)/C(=C/c1ccc(NC(=O)CN(C)CCN(C)C)cc1)C2 [D35] |  | 90.7 ± 1.25% | 42.5 ± 0.547% |  |  |  |  |  | 88.46 ± 0.758% | 90.2 ± 1.39% | 0.215 ± 0.0088 µM | 95.7 ± 1.2% | 91.7 ± 1.47% | 73.2 ± 1.12% | 61.8 ± 1.08% | 42.9 ± 0.628% | 33.6 ± 0.52% | 21.5 ± 0.448% | 53.9 ± 1.22 µM | 0.238 ± 0.011 µM | inhibition at 100 µM [2]: 21.7 ± 0.623%; IC50 [3]: 0.151 ± 0.0048 µM; inhibition at 10 µM ([3]; 10^–5 M): 74.6 ± 1.13%; inhibition at 1 µM ([3]; 10^–6 M): 65.9 ± 1.01%; inhibition at 0.1 µM ([3]; 10^–7 M): 54.9 ± 0.974%; inhibition at 0.01 µM ([3]; 10^–8 M): 33.4 ± 0.814%; inhibition at 0.001 µM ([3]; 10^–9 M): 18 ± 0.411%
